Experiments:
Assay type in all cases: in vivo, Wistar male rats
H I/R-induced injury [1] = experiment: Hepatic oxidative stress biomarkers in hepatic tissue homogenate after hepatic ischemia-reperfusion; conditions: compared to H I/R animals
Description: (§1) Wistar male rats (age: 6-8 weeks; weight: 200-230 g) were obtained from Experimental Animal Research Centre, King Saud University, Riyadh, K S A. The animals were acclimatized with standard laboratory food and water ad libitum in ventilated cages system (12 h light/dark cycles, 20.3-23.1° C.) then kept throughout the whole experiment under the same conditions.
(§2) Rats were anesthetized with isoflurane with oxygen (2%, 0.5 L/h) throughout the whole surgery, under heat control and aseptic conditions. Animals' abdomen was shaved and sterilized, and a surgical incision (about 3 cm) from the pubic to the sternum was executed. The portal triad, comprising the hepatic artery, portal vein, and common bile duct, was clamped using a micro-vascular clamp for 60 min to prompt ischemia. Hepatic reperfusion was accompanied by releasing the micro-vascular clamp and permitted reperfusion for six hours. The sham-operated animals were subjected to all the procedures that occurred during H I/R, deprived of blood flow blockage.
(§3) 1-Deoxynojirimycin hydrochloride (1-DNJ) was purchased from Merck (Merck & Co., USA, product number D 9305). 1-DNJ was administered by gavage orally after being suspended in 1% carboxymethyl cellulose (CMC) solution. 1-DNJ dose (50 and 100 mg/kg) selection was based on previous studies. A total of 30 Wistar rats were haphazardly assigned into five groups (six rats/group). The sham group in which animals were given vehicle (1% CMC) orally for two weeks and subjected to sham steps. 1-DNJ+Sham group in which rats were administered 1-DNJ (100 mg/kg/day) for two weeks and then subjected to sham steps. Third group, the H I/R group, in which rats were administered 1% CMC for two weeks and then hepatic ischemia for 60 min followed by 6 hours reperfusion was implemented. Finally, 1-DNJ 50+H I/R and 1-DNJ 100+H I/R groups in which rats were pretreated with 1-DNJ (50, 100 mg/kg/day) respectively orally for two weeks, then subjected to hepatic I/R surgical procedure.
(§4) Once the reperfusion period was completed, animals' blood was obtained through the hearts, centrifuged at 4000×g for 15 min at 4° C., and stored at −20° C. to be utilized in the biochemical estimation of liver function tests, including ALT, AST, ALP, and LDH. Moreover, hepatic tissues were isolated, washed in cool PBS, and distributed in three portions. The first part was homogenized with PBS, centrifuged at 10,000×g for 15 min at 4° C., and consumed to evaluate oxidative stress and ELISA biomarkers. The second portion was stored at −20° C. for subsequent qRT-PCR and western blot analysis. The third part was fixed with 10% formalin buffered saline to estimate the histopathological variations as well as the immunohistochemical manifestation.
(§5) One-way ANOVA followed by Tukey-Kramer as a post hoc test were executed for multiple comparisons between different experimental groups. p as a level of probability was set at 0.05, indicating the significance level. All statistical analyses were performed using Graph Pad software (version 8, CA, USA).
Oxidative stress-related biomarkers, including antioxidant and lipid peroxidation enzymes such as CAT, SOD, GST, GSH, MDA, and NO contents, were monitored in the hepatic tissue homogenate. Malondialdehyde (MDA; ab238537), glutathione (GSH, ab65322), glutathione-s-transferase (GST, ab65326), nitric oxide (NO, ab272517) assay kits were purchased from Abeam Inc. (Cambridge, UK). Superoxide dismutase (SOD; MBS036924) and catalase (MBS726781) ELISA kits were obtained from My BioSource (San Diego, CA, USA). All the procedures were executed in accordance with the manufacturer's directions.

H I/R-induced injury [2] = experiment: Histopathological examination (H&E, Suzuki grading) of ischemic liver
Description: as §1, §2
1-Deoxynojirimycin hydrochloride (1-DNJ) was purchased from Merck (Merck & Co., USA, product number D 9305). 1-DNJ was administered by gavage orally after being suspended in 1% carboxymethyl cellulose (CMC) solution. 1-DNJ dose (50 and 100 mg/kg) selection was based on previous studies. A total of 30 Wistar rats were haphazardly assigned into five groups (six rats/group). […]

H I/R-induced injury [3] = experiment: Apoptotic markers (caspase 3, caspase 9) ELISA after hepatic ischemia-reperfusion; conditions: compared to H I/R animals
Description: as §1, §2, §3
Once the reperfusion period was completed, animals' blood was obtained through the hearts, centrifuged at 4000×g for 15 min at 4° C., and stored at −20° C. to be utilized in the biochemical estimation of liver function tests, including ALT, AST, ALP, and LDH. Moreover, hepatic tissues were isolated, washed in cool PBS, and distributed in three portions. […]
Inflammation markers including TNF-α (ab46070), […], IL-6 (ab100772) NFκB (ab133112) and IL-10 (ab214566), ELISA kits were obtained from Abcam Co., (Eugene, OR, USA). […] These markers were measured according to the manufacturer's instructions using a microplate reader SpectraMax i3X (Molecular devices San Jose, CA, USA).

H I/R-induced injury [4] = experiment: Hepatic function biomarkers (serum ALT, AST, ALP, LDH) after hepatic ischemia-reperfusion; conditions: compared to H I/R animals
Description: as §1, §2, §3, §4, §5
Rat Alanine Aminotransferase (ALT) ELISA kit (ab285264), Aspartate Aminotransferase (AST) ELISA kit (ab263883), and Alkaline Phosphatase (ALP) colorimetric assay kit (ab83369), Lactate Dehydrogenase (LDH) colorimetric assay kit (ab102526) were obtained from Abcam (Boston, MA, USA) and utilized following the manufacturer's instructions.

[5] = 1-DNJ 50 mg/kg/day orally for 2 weeks before H I/R
[6] = 1-DNJ 100 mg/kg/day orally for 2 weeks before H I/R

Question: For `Cl.OC[C@H]1NC[C@H](O)[C@@H](O)[C@@H]1O` [1-DNJ, 1-Deoxynojirimycin hydrochloride], which “percentage elevation in CAT” value (H I/R-induced injury [1]; [5]) is on record?
Answer: Its value is 114.24%.

Question: What about the “percentage elevation in GSH” value (H I/R-induced injury [1]; [5]) of the same molecule?
Answer: The value was 130.82%.

Question: What about the “percentage elevation in GST” value (H I/R-induced injury [1]; [5]) of the same molecule?
Answer: Its value is 49.42%.

Question: And the “percentage elevation in SOD” value (H I/R-induced injury [1]; [5])?
Answer: The value was 60.80%.

Question: And the “percentage reduction in MDA” value (H I/R-induced injury [1]; [5])?
Answer: Its value is 24.18%.

Question: And the “percentage reduction in NO” value (H I/R-induced injury [1]; [5])?
Answer: Its value is 40.77%.

Question: And the “percentage elevation in CAT” value (H I/R-induced injury [1]; [6])?
Answer: Its value is 161.09%.

Question: And the “percentage elevation in GSH” value (H I/R-induced injury [1]; [6])?
Answer: Its value is 194.64%.

Question: And the “percentage elevation in GST” value (H I/R-induced injury [1]; [6])?
Answer: The value was 99.02%.

Question: What about the “percentage elevation in SOD” value (H I/R-induced injury [1]; [6]) of the same molecule?
Answer: Its value is 89.51%.

Question: And the “percentage reduction in MDA” value (H I/R-induced injury [1]; [6])?
Answer: Its value is 30.71%.

Question: And the “percentage reduction in NO” value (H I/R-induced injury [1]; [6])?
Answer: Its value is 55.05%.

Question: And the “histopathological changes by Suzuki scores (congestion, vacuolation, necrosis)” value (H I/R-induced injury [2]; 1-DNJ preconditioned animals (50 and 100 mg/kg/day orally, 2 weeks), related to H I/R animals)?
Answer: Its value is “substantial reduction in hepatic congestion and hepatocellular vacuolation and necrosis”.

Question: And the “histopathological findings (H&E sections)” value (H I/R-induced injury [2]; 1-DNJ pretreated groups (50 and 100 mg/kg/day orally, 2 weeks) before H I/R)?
Answer: Its value is “re-established hepatic parenchyma, less hepatocellular necrosis, fewer congested hepatic sinusoids, and portal vasculatures with slight vacuolation”.

Question: And the “percentage reduction in caspase 3” value (H I/R-induced injury [3]; [5])?
Answer: The value was 27.62%.

Question: What about the “percentage reduction in caspase 9” value (H I/R-induced injury [3]; [5]) of the same molecule?
Answer: The value was 20.09%.

Question: And the “percentage reduction in caspase 3” value (H I/R-induced injury [3]; [6])?
Answer: Its value is 41.23%.

Question: And the “percentage reduction in caspase 9” value (H I/R-induced injury [3]; [6])?
Answer: The value was 24.86%.

Question: And the “percentage reduction in ALP” value (H I/R-induced injury [4]; [5])?
Answer: Its value is 29.75%.

Question: What about the “percentage reduction in ALT” value (H I/R-induced injury [4]; [5]) of the same molecule?
Answer: Its value is 22.26%.

Question: What about the “percentage reduction in AST” value (H I/R-induced injury [4]; [5]) of the same molecule?
Answer: The value was 26.96%.

Question: What about the “percentage reduction in LDH” value (H I/R-induced injury [4]; [5]) of the same molecule?
Answer: Its value is 24.39%.

Question: What about the “percentage reduction in ALP” value (H I/R-induced injury [4]; [6]) of the same molecule?
Answer: The value was 44.53%.

Question: And the “percentage reduction in ALT” value (H I/R-induced injury [4]; [6])?
Answer: The value was 43.11%.

Question: What about the “percentage reduction in AST” value (H I/R-induced injury [4]; [6]) of the same molecule?
Answer: The value was 41.65%.

Question: And the “percentage reduction in LDH” value (H I/R-induced injury [4]; [6])?
Answer: Its value is 48.63%.

Reference: patent US20250090515A1, “1-Deoxynojirimycin To Mitigate Hepatic Ischemia- Reperfusion” (KING FAISAL UNIVERSITY, priority 2023, published 2025)
